What was measured:
MDA231 and SiHa cells = test: In vitro invasion assay (Matrigel-coated inserts); assay type: cell-based; details: various human cancer cells; 24 hr oxygen deprived
Protocol: The first step of the metastatic process is cell invasion. […] The invasion of various human cancer cells in vitro was examined. […] Because LOX is a copper-dependent enzyme that can act intracellularly or extracellularly, cells were treated with bathocuprione disulphonate (BCS), a copper chelator that cannot permeate the cell membrane.
Invasive behavior was examined in vitro as previously described. Briefly, cells were serum deprived for 24 h then 2.5×10^4 cells were seeded in triplicate on both Matrigel-coated and uncoated inserts, moved to chambers containing 750 μl of FBS as a chemo-attractant and incubated at in normoxic or oxygen deprived conditions for 24 hr. Treatments with beta-aminoproprionitrile or bathocuprione disulphonate (Sigma) were performed 24 h prior to serum deprivation, and continued throughout the experiment.

FAK = FAK phosphorylation (phospho-FAK immunoblot); assay type: cell-based; details: cells expressing LOX shRNA transfected with mature LOX
From the text: Acquisition of motility is required before cells can migrate and invade. Invasive cell migration is a multi-step process^17 that commences with pseudopod protrusion at the leading edge driven by actin polymerization, resulting in focal adhesion formation and the activation of integrin and focal adhesion kinase (FAK). […] LOX protein expression extended along hairlike fibers protruding from the cell surface into the collagen matrix. […] Remodeling of the actin cytoskeleton with increased formation of stress fibers and focal adhesion in MDA231 control cells particularly in hypoxia was observed, which were not seen in cells expressing LOX shRNA.
A role for fibronectin (FN) was sought, because it was strongly associated with LOX expression in the breast cancer microarray data set that was analyzed (data not shown), is reported to regulate invasion, bind to integrins and interact with LOX, and is hypoxia induced. […] FAK phosphorylation could be induced in the cells expressing LOX shRNA by transfection with mature LOX (but not catalytically dead LOX), confirming a role for LOX in FAK phosphorylation. […]
Methods were performed as previously described. […] LOX was analyzed by using a rabbit polyclonal antibody raised against a synthetic peptide of human LOX (EDTSCDYGYHRRFA (SEQ ID NO:1); Open Biosystems). […] Quantification was performed with ImageQuant software.

N#CCCN [BAPN, β-aminoproprionitrile]
increased invasion under hypoxia or anoxia (MDA231 and SiHa cells): could be prevented | FAK phosphorylation induced by transfection with mature LOX (FAK): could be prevented

Source: patent publication US20070225242A1, “Method and composition for treating and preventing tumor metastasis in vivo” (The Board of Trustees of the Leland Stanford Junior …, priority 2005, published 2007)
